The source of these data is patent US20240270809A1, “ORAL GLP RECEPTOR AGONISTS” (priority 2020, published 2024).

Positions of bridges follow the written chain, without caps; N, C: chain ends. Non-standard residues stand in square brackets, D forms with d. Residues, ends and D or L forms follow the SMILES beside them. *: point of attachment. Malonyl(2,2-Me2,histaminyl) = CC(C)(C(=O)NCCc1cnc[nH]1)C(=O)*; Ala(1H-tetrazol-5-yl) = N[C@@H](Cc1nnn[nH]1)C(=O)O; αMePhe(2-F) = C[C@](N)(Cc1ccccc1F)C(=O)O; Nle = CCCC[C@H](N)C(=O)O; Aib = CC(C)(N)C(=O)O

For one series, the target named is T1, human GLP2 receptor (Homo sapiens, UniProt O95838).
T1 construct: expressed in transfected cells; host or cells: HEK cells, BacMam virus transduction
T1 sequence (O95838 1-553): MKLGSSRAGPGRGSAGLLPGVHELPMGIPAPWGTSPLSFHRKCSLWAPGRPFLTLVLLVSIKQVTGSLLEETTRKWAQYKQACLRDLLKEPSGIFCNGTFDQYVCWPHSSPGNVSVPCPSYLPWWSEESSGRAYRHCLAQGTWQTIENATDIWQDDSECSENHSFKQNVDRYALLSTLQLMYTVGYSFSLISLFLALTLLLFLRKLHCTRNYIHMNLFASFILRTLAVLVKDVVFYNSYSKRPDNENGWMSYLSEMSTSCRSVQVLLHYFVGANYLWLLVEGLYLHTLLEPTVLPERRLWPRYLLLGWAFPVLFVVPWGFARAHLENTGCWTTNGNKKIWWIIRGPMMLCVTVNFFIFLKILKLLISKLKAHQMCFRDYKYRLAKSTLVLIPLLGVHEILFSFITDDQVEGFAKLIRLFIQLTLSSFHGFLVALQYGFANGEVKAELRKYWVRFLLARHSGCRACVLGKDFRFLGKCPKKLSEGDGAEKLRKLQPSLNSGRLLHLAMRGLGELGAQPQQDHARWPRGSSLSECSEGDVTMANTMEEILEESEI
Kind of series: cAMP accumulation assay, functional agonism of human GLP2 receptor. It is filed as cell-based. The settings on record: HEK cells infected with human GLP2 receptor BacMam virus, HTRF cAMP; for Emax: HEK293, read-out: Human GLP-2R agonist cAMP Emax; for EC50: read-out: Human GLP-2R agonist cAMP pEC50 (converted). An outline of the steps: (§1)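 HTRF cAMP read-out: HEK cells expressing GLP1 or GLP2 receptor via 24 h BacMam infection, frozen before use; agonist exposure 45 min, 37° C, HBSS + 0.5 mM IBMX; stopped with detection reagents in lysis buffer.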

For the next series, the target named is T2, human GLP1 receptor (Homo sapiens, UniProt P43220).
T2 construct: expressed in transfected cells; host or cells: HEK cells, BacMam virus transduction
Description: cAMP accumulation assay, functional agonism of human GLP1 receptor. It is filed as cell-based. The settings on record: HEK cells infected with human GLP1 receptor BacMam virus, HTRF cAMP; for Emax: HEK293, read-out: Human GLP-1R agonist cAMP Emax; for EC50: read-out: Human GLP-1R agonist cAMP pEC50 (converted). An outline of the steps:
as §1

A further series has as its target T3, mouse GLP2 receptor (Mus musculus, UniProt Q5IXF8).
T3 construct: expressed in transfected cells; host or cells: HEK cells, transient transfection with GeneJuice
T3 sequence (Q5IXF8 1-512): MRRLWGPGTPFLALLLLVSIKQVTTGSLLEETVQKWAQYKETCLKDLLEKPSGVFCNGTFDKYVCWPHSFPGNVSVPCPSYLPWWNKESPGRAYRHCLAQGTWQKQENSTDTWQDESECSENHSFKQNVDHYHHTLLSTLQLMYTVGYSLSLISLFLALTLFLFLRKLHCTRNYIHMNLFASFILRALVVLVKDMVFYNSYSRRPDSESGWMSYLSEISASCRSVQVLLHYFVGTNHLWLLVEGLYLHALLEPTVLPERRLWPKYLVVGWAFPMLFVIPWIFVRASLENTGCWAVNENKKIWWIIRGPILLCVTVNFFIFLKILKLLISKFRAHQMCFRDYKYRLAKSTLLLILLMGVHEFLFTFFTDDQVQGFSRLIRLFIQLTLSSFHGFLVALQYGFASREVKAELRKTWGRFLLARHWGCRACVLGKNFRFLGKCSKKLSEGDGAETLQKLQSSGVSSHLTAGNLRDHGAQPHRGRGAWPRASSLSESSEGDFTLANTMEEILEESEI
Kind of series: cAMP accumulation assay, functional agonism of mouse GLP2 receptor. It is filed as cell-based. The settings on record: HEK cells transiently transfected with mouse GLP2 receptor, HTRF cAMP. An outline of the steps:
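pEC50 values come from four-parameter fits of HTRF cAMP signal, read after lysis and 1 h RT incubation. Compounds were incubated 45 min at 37 °C with previously frozen, transiently transfected HEK cells (8000/well) in HBSS containing 0.5 mM IBMX.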

Series [1] in a line: Stability of peptides in Fasted-State Simulated Intestinal Fluid (FaSSIF). It is filed as in vitro ADME. The settings on record: FaSSIF with 10 mg/ml pancreatin, 37° C.; for remaining at 0.25 h: FaSSIF pH 6.5 with 10 mg/ml pancreatin, t = 15 mins.

T2 sequence (P43220 24-463): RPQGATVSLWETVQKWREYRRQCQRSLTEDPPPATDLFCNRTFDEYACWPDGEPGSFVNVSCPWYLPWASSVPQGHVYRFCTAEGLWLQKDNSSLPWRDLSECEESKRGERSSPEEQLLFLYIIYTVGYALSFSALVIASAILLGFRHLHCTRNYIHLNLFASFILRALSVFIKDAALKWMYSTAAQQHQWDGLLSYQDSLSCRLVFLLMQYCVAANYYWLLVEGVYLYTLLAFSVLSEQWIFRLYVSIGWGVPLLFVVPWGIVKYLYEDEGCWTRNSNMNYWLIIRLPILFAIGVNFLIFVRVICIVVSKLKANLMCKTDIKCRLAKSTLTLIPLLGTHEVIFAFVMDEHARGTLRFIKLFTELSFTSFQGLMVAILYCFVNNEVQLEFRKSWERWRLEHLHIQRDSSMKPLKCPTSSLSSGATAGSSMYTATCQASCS

Turning to `CCCC[C@@H]1NC(=O)[C@H](CCC(=O)O)NC(=O)[C@@H](NC(=O)[C@H](CO)NC(=O)[C@](C)(Cc2ccccc2F)NC(=O)[C@H](CO)NC(=O)[C@@H](C)NC(=O)[C@H](CC(=O)O)NC(=O)C(C)(C)NC(=O)[C@@H](N)Cc2c[nH]cn2)CCCCNC(=O)C[C@@H](C(=O)N[C@H](C(=O)N[C@@H](CC(C)C)C(=O)N[C@@H](CC(=O)O)C(=O)N[C@H]2CCC(=O)NCCCC[C@@H](C(=O)N[C@@H](CC(=O)O)C(=O)N[C@@H](Cc3ccccc3)C(=O)N[C@H](C(=O)N[C@@H](CC(N)=O)C(=O)N[C@@H](Cc3c[nH]c4ccccc34)C(=O)N[C@@H](CC(C)C)C(=O)N[C@H](C(=O)N[C@@H](CCC(N)=O)C(=O)N[C@H]3CCC(=O)NCCCC[C@@H](C(N)=O)NC(=O)[C@H]([C@@H](C)O)NC(=O)[C@H]([C@@H](C)CC)NC(=O)[C@H](CCCCN)NC3=O)[C@@H](C)CC)[C@@H](C)CC)NC(=O)[C@H](C)NC(=O)[C@H](C)NC(=O)[C@H](CCCCN)NC2=O)[C@@H](C)CC)NC(=O)[C@@H](Cc2ccccc2)NC1=O` [Example 19] (H-H[Aib]D[dA]S[αMePhe(2-F)]SKE[Nle][dF]DILDEKAAKDFINWLIQEKITK-NH2; lactam 8-12, 16-20, 29-33 (inferred); C-terminus assumed), the Emax at human GLP2 receptor was 103%; at human GLP1 receptor, 95.4%; on mouse GLP2 receptor (HEK293, read-out: Mouse GLP-2R agonist cAMP Emax) it was 101%. Besides, the EC50 at human GLP2 receptor was 0.01 nM; at human GLP1 receptor, 0.251 nM; on mouse GLP2 receptor (read-out: Mouse GLP-2R agonist cAMP pEC50 (converted)), 0.794 nM. Further, the share remaining at 0.5 h in series [1] (t=30 mins, pH 6.5, 10 mg/ml pancreatin) is 12.2%.
Regarding `CCCC[C@H](NC(=O)[C@H](CCC(=O)O)NC(=O)[C@H](CC(=O)O)NC(=O)[C@H](CO)NC(=O)[C@H](Cc1ccccc1)NC(=O)[C@H](CO)NC(=O)CNC(=O)[C@H](Cc1nn[nH]n1)NC(=O)C(C)(C)C(=O)NCCc1c[nH]cn1)C(=O)N[C@H](Cc1ccccc1)C(=O)N[C@H](C(=O)N[C@H](C(=O)N[C@@H](CC(C)C)C(=O)N[C@@H](CC(=O)O)C(=O)N[C@H]1CCC(=O)NCCCC[C@@H](C(=O)N[C@@H](CC(=O)O)C(=O)N[C@@H](Cc2ccccc2)C(=O)N[C@H](C(=O)N[C@@H](CC(N)=O)C(=O)N[C@@H](Cc2c[nH]c3ccccc23)C(=O)N[C@@H](CC(C)C)C(=O)N[C@H](C(=O)N[C@@H](CCC(N)=O)C(=O)N[C@H](C(=O)N[C@H]2CCC(=O)NCCCC[C@@H](C(N)=O)NC(=O)[C@H]([C@@H](C)O)NC(=O)[C@H]([C@@H](C)CC)NC2=O)[C@@H](C)O)[C@@H](C)CC)[C@@H](C)CC)NC(=O)[C@H](C)NC(=O)[C@H](C)NC(=O)[C@H](CCCCN)NC1=O)[C@@H](C)CC)[C@@H](C)O` [Example 107] ({Malonyl(2,2-Me2,histaminyl)}-[Ala(1H-tetrazol-5-yl)]GSFSDE[Nle][dF]TILDEKAAKDFINWLIQTEITK-NH2; lactam 14-18, 28-31), on human GLP2 receptor, the Emax came out at 101% and the EC50 is 0.02 nM. Further, at human GLP1 receptor, the Emax was determined as 96.9% and the EC50 was 0.02 nM. In addition, in series [1], the fraction remaining at 0.25 h was 7.4%.
For the compound `CCCC[C@H](NC(=O)[C@H](CCC(=O)O)NC(=O)[C@H](CC(=O)O)NC(=O)[C@H](CO)NC(=O)[C@H](Cc1ccccc1)NC(=O)[C@H](CO)NC(=O)CNC(=O)[C@H](Cc1nn[nH]n1)NC(=O)C(C)(C)C(=O)NCCc1c[nH]cn1)C(=O)N[C@H](Cc1ccccc1)C(=O)N[C@H]1CCCCNC(=O)C[C@@H](C(=O)N[C@@H](CCCCN)C(=O)N[C@@H](C)C(=O)N[C@@H](C)C(=O)NC(C)(C)C(=O)N[C@@H](CC(=O)O)C(=O)N[C@@H](Cc2ccccc2)C(=O)N[C@H](C(=O)N[C@@H](CC(N)=O)C(=O)N[C@@H](Cc2c[nH]c3ccccc23)C(=O)N[C@@H](CC(C)C)C(=O)N[C@H](C(=O)N[C@@H](CCC(N)=O)C(=O)N[C@H](C(=O)N[C@H]2CCC(=O)NCCCC[C@@H](C(N)=O)NC(=O)[C@H]([C@@H](C)O)NC(=O)[C@H]([C@@H](C)CC)NC2=O)[C@@H](C)O)[C@@H](C)CC)[C@@H](C)CC)NC(=O)[C@H](CC(=O)O)NC(=O)[C@H](CC(C)C)NC(=O)[C@H]([C@@H](C)CC)NC1=O` [Example 109] ({Malonyl(2,2-Me2,histaminyl)}-[Ala(1H-tetrazol-5-yl)]GSFSDE[Nle][dF]KILDDKAA[Aib]DFINWLIQTEITK-NH2; lactam 10-14, 28-31), at human GLP2 receptor, the Emax was found to be 102% and the EC50 was 0.00794 nM. Besides, at human GLP1 receptor, the Emax turned out to be 97% and the EC50 is 0.0251 nM. In series [1], the amount remaining at 0.25 h is 4.6%.
For `CCCC[C@H](NC(=O)[C@H](CCC(=O)O)NC(=O)[C@@H]1CCCCNC(=O)CC[C@H](NC(=O)[C@H](CC(=O)O)NC(=O)C(C)(C)NC(=O)[C@@H](N)Cc2c[nH]cn2)C(=O)N[C@@H](CO)C(=O)N[C@@H](Cc2ccccc2)C(=O)N[C@@H](CO)C(=O)N1)C(=O)N[C@H](Cc1ccccc1)C(=O)N[C@H](C(=O)N[C@H](C(=O)N[C@@H](CC(C)C)C(=O)N[C@@H](CC(=O)O)C(=O)N[C@H]1CCCCNC(=O)C[C@@H](C(=O)N[C@@H](CC(=O)O)C(=O)N[C@@H](Cc2ccccc2)C(=O)N[C@H](C(=O)N[C@@H](CC(N)=O)C(=O)N[C@@H](Cc2c[nH]c3ccccc23)C(=O)N[C@@H](CC(C)C)C(=O)N[C@H](C(=O)N[C@@H](CCC(N)=O)C(=O)N[C@H](C(=O)N[C@@H](CCCCN)C(=O)N[C@H](C(=O)N[C@H](C(=O)N[C@@H](CC(=O)O)C(N)=O)[C@@H](C)O)[C@@H](C)CC)[C@@H](C)O)[C@@H](C)CC)[C@@H](C)CC)NC(=O)[C@H](C)NC(=O)[C@H](C)NC(=O)[C@H](CCCCN)NC1=O)[C@@H](C)CC)[C@@H](C)O` [Example 110] (H-H[Aib]DESFSKE[Nle][dF]TILDKKAADDFINWLIQTKITD-NH2; lactam 4-8, 16-20; N-terminus and C-terminus assumed) the same measures were 103%, 0.0158 nM, 88.1%, 3.98 nM and 5%.
As to `CCCC[C@@H]1NC(=O)[C@H](CCC(=O)O)NC(=O)[C@H](CC(=O)O)NC(=O)[C@@H](NC(=O)[C@H](Cc2ccccc2)NC(=O)[C@H](CO)NC(=O)CNC(=O)[C@H](CC(=O)O)NC(=O)C(C)(C)NC(=O)[C@@H](N)Cc2c[nH]cn2)CCC(=O)NCCCC[C@@H](C(=O)N[C@H](C(=O)N[C@H](C(=O)N[C@@H](CC(C)C)C(=O)N[C@@H](CC(=O)O)C(=O)N[C@@H](CC(C)C)C(=O)N[C@@H](CCCCN)C(=O)N[C@@H](C)C(=O)N[C@@H](C)C(=O)N[C@@H](CCCCN)C(=O)N[C@@H](CC(=O)O)C(=O)N[C@@H](Cc2ccccc2)C(=O)N[C@H](C(=O)N[C@@H](CC(N)=O)C(=O)N[C@@H](Cc2c[nH]c3ccccc23)C(=O)N[C@@H](CC(C)C)C(=O)N[C@H](C(=O)N[C@@H](CCC(N)=O)C(=O)N[C@H](C(=O)N[C@H]2CCC(=O)NCCCC[C@@H](C(N)=O)NC(=O)[C@H]([C@@H](C)O)NC(=O)[C@H]([C@@H](C)CC)NC2=O)[C@@H](C)O)[C@@H](C)CC)[C@@H](C)CC)[C@@H](C)CC)[C@@H](C)O)NC1=O` [Example 111] (H-H[Aib]DGSFEDE[Nle]KTILDLKAAKDFINWLIQTEITK-NH2; lactam 7-11, 30-33 (inferred); C-terminus assumed), at human GLP2 receptor, the Emax amounted to 104% and the EC50 was 0.631 nM. At human GLP1 receptor, the Emax turned out to be 93.2% and the EC50 is 0.794 nM. The share remaining at 0.25 h in series [1] is 26.9%.
